Source: patent publication US12173322B2, “Genome-edited induced pluripotent stem cells, and cells derived therefrom, and uses thereof” (priority 2020, dated 2024)
Where two headings read alike, the source gives them in different places.

Legend:
Type in all cases: cell-based
[1] = target: T1, hKCNQ1 /mink (Homo sapiens, UniProt P51787); assay: Patch clamp electrophysiology (QPatch), hKCNQ1/mink
T1 construct: Eurofins

[2] = target: T2, hKir2.1 (Homo sapiens, UniProt P63252); assay: Patch clamp electrophysiology (QPatch CiPA), hKir2.1; settings: for IC50: Antagonist, read-out: Estimated IC50
T2 construct: Eurofins
T2 sequence (P63252 1-427): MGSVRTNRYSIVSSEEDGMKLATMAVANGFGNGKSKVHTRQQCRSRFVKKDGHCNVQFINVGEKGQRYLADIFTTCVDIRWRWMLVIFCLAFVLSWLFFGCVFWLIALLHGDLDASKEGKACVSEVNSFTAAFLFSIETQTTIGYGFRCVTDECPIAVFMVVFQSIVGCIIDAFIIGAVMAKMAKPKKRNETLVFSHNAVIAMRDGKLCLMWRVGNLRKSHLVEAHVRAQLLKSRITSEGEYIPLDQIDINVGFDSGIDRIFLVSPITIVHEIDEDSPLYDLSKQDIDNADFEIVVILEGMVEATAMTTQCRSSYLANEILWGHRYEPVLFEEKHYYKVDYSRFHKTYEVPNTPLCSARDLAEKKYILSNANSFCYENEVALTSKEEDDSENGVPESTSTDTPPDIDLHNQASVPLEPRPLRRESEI
Description: Replated hiPSC-CMs were loaded with a fluorescent calcium dye and calcium transients were recorded before and after peptide addition.

[3] = target: T3, hKv4.3/hKChIP2 (Homo sapiens, UniProt Q9UK17); assay: Patch clamp electrophysiology (QPatch CiPA), hKv4.3/hKChIP2; settings: for IC50: Antagonist, read-out: Estimated IC50
T3 construct: Eurofins
T3 sequence (Q9UK17 1-655): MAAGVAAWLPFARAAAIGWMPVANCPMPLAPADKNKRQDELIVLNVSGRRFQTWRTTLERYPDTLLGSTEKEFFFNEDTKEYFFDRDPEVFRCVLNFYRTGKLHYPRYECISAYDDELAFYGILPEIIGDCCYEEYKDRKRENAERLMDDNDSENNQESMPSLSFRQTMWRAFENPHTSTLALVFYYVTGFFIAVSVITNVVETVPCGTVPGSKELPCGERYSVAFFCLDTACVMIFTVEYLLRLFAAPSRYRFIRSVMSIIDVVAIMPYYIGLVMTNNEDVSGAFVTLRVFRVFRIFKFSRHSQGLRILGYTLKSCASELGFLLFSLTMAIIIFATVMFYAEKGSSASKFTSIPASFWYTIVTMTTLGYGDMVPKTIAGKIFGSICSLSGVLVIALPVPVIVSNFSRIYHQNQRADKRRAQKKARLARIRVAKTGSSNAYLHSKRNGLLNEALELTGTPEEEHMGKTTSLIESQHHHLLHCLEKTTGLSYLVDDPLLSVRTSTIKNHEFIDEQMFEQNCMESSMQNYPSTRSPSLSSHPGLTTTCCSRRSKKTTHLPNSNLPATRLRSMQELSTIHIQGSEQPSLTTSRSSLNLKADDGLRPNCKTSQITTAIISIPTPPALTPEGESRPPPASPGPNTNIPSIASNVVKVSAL
T3 sequence (Q9NS61 1-270 partner): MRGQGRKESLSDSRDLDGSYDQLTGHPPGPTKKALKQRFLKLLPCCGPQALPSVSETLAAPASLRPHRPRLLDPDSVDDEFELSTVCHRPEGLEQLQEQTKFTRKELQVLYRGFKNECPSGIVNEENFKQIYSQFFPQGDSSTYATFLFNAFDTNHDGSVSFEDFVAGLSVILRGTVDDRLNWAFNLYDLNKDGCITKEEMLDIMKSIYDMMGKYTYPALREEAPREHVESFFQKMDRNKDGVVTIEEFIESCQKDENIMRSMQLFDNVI

[4] = target: T4, hCav1.2 (Homo sapiens, UniProt Q13936); assay: Patch clamp electrophysiology (QPatch CiPA), hCav1.2
T4 construct: Eurofins

[5] = target: T5, hNav1.5 (Homo sapiens, UniProt Q14524); assay: Patch clamp electrophysiology (QPatch CiPA), hNav1.5
T5 construct: Eurofins
T5 sequence (Q14524 whole entry): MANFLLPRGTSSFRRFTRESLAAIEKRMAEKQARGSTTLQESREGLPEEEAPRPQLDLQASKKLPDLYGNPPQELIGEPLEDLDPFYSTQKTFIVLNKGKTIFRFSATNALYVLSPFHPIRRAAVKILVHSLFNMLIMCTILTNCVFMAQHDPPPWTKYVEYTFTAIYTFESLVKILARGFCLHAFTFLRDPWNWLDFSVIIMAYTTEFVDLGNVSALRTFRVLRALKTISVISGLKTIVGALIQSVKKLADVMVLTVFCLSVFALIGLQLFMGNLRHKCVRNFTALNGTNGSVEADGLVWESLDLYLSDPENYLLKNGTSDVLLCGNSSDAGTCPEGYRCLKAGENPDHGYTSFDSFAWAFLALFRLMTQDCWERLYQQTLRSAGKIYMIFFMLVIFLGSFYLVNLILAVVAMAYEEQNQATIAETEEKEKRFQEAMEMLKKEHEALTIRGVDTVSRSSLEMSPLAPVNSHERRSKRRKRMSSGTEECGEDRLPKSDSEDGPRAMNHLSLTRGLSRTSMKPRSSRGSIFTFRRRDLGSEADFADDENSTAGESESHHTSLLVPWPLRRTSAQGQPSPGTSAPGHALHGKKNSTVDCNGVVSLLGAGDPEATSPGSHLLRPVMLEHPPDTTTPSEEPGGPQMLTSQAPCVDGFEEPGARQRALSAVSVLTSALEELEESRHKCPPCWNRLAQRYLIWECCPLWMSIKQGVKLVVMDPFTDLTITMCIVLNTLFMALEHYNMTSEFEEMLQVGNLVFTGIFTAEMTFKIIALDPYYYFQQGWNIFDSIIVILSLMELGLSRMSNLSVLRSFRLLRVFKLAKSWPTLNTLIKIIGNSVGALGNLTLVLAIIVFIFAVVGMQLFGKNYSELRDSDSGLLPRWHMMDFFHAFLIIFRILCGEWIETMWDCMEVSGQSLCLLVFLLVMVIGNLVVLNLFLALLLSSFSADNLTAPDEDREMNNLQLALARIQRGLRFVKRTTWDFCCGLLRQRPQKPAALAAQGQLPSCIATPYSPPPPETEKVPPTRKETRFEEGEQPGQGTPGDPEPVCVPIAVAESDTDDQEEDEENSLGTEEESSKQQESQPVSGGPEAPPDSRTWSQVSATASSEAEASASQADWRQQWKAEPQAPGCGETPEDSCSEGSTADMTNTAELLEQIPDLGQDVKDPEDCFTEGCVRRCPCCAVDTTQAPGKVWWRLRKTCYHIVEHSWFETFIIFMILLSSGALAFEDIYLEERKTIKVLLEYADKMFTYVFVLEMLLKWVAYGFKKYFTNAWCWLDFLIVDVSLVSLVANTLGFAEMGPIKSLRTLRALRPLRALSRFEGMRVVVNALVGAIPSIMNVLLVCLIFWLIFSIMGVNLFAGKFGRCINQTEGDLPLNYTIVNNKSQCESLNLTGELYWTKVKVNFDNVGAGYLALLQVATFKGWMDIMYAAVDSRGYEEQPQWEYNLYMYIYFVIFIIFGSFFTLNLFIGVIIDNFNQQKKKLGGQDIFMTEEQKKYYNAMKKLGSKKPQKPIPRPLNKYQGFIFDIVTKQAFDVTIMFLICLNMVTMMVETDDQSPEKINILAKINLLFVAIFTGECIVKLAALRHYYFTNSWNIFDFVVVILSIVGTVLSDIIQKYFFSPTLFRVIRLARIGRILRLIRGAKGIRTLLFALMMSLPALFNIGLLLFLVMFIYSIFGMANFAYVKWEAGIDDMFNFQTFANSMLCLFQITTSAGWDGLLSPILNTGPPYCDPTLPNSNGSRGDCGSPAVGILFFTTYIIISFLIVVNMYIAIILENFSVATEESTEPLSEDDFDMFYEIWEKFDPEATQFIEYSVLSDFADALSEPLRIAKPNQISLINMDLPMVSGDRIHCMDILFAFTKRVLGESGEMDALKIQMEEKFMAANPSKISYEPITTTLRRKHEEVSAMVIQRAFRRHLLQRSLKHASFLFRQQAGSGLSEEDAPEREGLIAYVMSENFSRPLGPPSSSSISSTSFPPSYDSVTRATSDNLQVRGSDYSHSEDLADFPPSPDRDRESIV

[6] = End, read-out: % inhibition mean
[7] = Peak, read-out: % inhibition mean
[8] = Peak, read-out: % inhibition n1
[9] = Peak, read-out: % inhibition n2

T1 sequence (P51787 whole entry): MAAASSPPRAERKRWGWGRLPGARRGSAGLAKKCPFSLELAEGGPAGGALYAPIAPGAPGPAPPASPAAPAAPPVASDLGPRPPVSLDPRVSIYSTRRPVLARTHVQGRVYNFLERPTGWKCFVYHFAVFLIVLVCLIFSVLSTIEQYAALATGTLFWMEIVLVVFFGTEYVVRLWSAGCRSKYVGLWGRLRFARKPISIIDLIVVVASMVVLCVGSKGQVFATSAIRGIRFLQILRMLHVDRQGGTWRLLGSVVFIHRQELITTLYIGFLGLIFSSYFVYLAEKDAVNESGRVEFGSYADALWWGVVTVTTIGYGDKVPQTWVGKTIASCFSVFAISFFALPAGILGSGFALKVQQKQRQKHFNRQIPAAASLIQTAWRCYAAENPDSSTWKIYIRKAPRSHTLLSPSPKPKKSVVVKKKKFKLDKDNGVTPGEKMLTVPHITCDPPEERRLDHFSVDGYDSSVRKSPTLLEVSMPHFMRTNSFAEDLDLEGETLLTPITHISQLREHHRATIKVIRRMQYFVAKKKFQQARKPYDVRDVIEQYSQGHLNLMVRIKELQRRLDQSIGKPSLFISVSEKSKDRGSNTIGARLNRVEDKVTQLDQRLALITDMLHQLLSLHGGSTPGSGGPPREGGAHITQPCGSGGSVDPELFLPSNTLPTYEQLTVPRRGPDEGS

For `CCS(=O)(=O)N(C)[C@H]1c2cc(C#N)ccc2OC(C)(C)[C@@H]1O` (racemic) [Chromanol 293B], the “% inhibition mean” value ([1]; 0.3 μM) was 4.24%, the “% inhibition n1” value ([1]; 0.3 μM) was 1.35% and the “% inhibition n2” value ([1]; 0.3 μM) was 7.13%. The “% inhibition mean” value ([1]; 1 µM) was 12.25%, the “% inhibition n1” value ([1]; 1 µM) was 9.45% and the “% inhibition n2” value ([1]; 1 µM) was 15.04%. For the same compound, the “% inhibition mean” value ([1]; 3 μM) was 22.85%, the “% inhibition n1” value ([1]; 3 μM) was 21.34% and the “% inhibition n2” value ([1]; 3 μM) was 24.36%. The “% inhibition mean” value ([1]; 10 µM) was 40.28%, the “% inhibition n1” value ([1]; 10 µM) was 39.37% and the “% inhibition n2” value ([1]; 10 µM) was 41.20%. For the same compound, the “% inhibition mean” value ([1]; 30 μM) was 73.92%, the “% inhibition n1” value ([1]; 30 μM) was 74.46% and the “% inhibition n2” value ([1]; 30 μM) was 73.39%. For the same compound, the “% inhibition mean” value ([1]; 100 µM) was 95.80%, the “% inhibition n1” value ([1]; 100 µM) was 96.45% and the “% inhibition n2” value ([1]; 100 µM) was 95.16%. For the same compound, the IC50 ([1]; read-out: Estimated IC50) was 11.5 µM.
In the case of `[Ba+2].[Cl-].[Cl-]` [Barium, Barium Chloride], the IC50 ([2]; End) is reported as 3.6 µM, the IC50 ([2]; Peak) is reported as 62.3 µM and the “% inhibition mean” value ([2]; End, 0.3 μM) is reported as 7.01%. For the same compound, the “% inhibition n1” value ([2]; End, 0.3 μM) was 6.49%, the “% inhibition n2” value ([2]; End, 0.3 μM) was 7.53% and the “% inhibition mean” value ([2]; End, 1 μM) was 18.29%. For the same compound, the “% inhibition n1” value ([2]; End, 1 μM) was 19.93%, the “% inhibition n2” value ([2]; End, 1 μM) was 16.65% and the “% inhibition mean” value ([2]; End, 3 μM) was 41.38%. For the same compound, the “% inhibition n1” value ([2]; End, 3 μM) was 39.87%, the “% inhibition n2” value ([2]; End, 3 μM) was 42.88% and the “% inhibition mean” value ([2]; End, 10 μM) was 80.72%. The “% inhibition n1” value ([2]; End, 10 μM) was 79.79%, the “% inhibition n2” value ([2]; End, 10 μM) was 81.66% and the “% inhibition mean” value ([2]; End, 30 μM) was 93.28%. For the same compound, the “% inhibition n1” value ([2]; End, 30 μM) was 93.64%, the “% inhibition n2” value ([2]; End, 30 μM) was 92.93% and the “% inhibition mean” value ([2]; End, 100 μM) was 98.46%. The “% inhibition n1” value ([2]; End, 100 μM) was 98.46%, the “% inhibition n2” value ([2]; End, 100 μM) was 98.47% and the “% inhibition mean” value ([2]; Peak, 0.3 μM) was 2.37%. For the same compound, the “% inhibition n1” value ([2]; Peak, 0.3 μM) was 1.78%, the “% inhibition n2” value ([2]; Peak, 0.3 μM) was 2.96% and the “% inhibition mean” value ([2]; Peak, 1 μM) was 6.45%. For the same compound, the “% inhibition n1” value ([2]; Peak, 1 μM) was 7.99%, the “% inhibition n2” value ([2]; Peak, 1 μM) was 4.90% and the “% inhibition mean” value ([2]; Peak, 3 μM) was 12.57%. The “% inhibition n1” value ([2]; Peak, 3 μM) was 14.88%, the “% inhibition n2” value ([2]; Peak, 3 μM) was 10.25% and the “% inhibition mean” value ([2]; Peak, 10 μM) was 13.31%. For the same compound, the “% inhibition n1” value ([2]; Peak, 10 μM) was 16.68%, the “% inhibition n2” value ([2]; Peak, 10 μM) was 9.94% and the “% inhibition mean” value ([2]; Peak, 30 μM) was 31.99%. For the same compound, the “% inhibition n1” value ([2]; Peak, 30 μM) was 38.78%, the “% inhibition n2” value ([2]; Peak, 30 μM) was 25.19% and the “% inhibition mean” value ([2]; Peak, 100 μM) was 62.64%. For the same compound, the “% inhibition n1” value ([2]; Peak, 100 μM) was 63.60% and the “% inhibition n2” value ([2]; Peak, 100 μM) was 61.68%.
Work on `O=C(NCC1CCCCN1)c1cc(OCC(F)(F)F)ccc1OCC(F)(F)F` (centres unmarked) [Flecainide] yielded an IC50 ([3]; End) of 10 µM, an IC50 ([3]; Peak) of 22.5 µM and an inhibition at 0.03 µM [3, 6] of 6.93%. It also gave an inhibition at 0.03 µM ([3]; End, read-out: % inhibition n1) of 5.29%, an inhibition at 0.03 µM ([3]; End, read-out: % inhibition n2) of 8.57% and an inhibition at 0.3 µM [3, 6] of 7.17%. For the same compound, the inhibition at 0.3 µM ([3]; End, read-out: % inhibition n1) was 2.84%, the inhibition at 0.3 µM ([3]; End, read-out: % inhibition n2) was 11.5% and the inhibition at 3 µM [3, 6] was 26.8%. For the same compound, the inhibition at 3 µM ([3]; End, read-out: % inhibition n1) was 25.6%, the inhibition at 3 µM ([3]; End, read-out: % inhibition n2) was 27.9% and the inhibition at 30 µM [3, 6] was 71.8%. The inhibition at 30 µM ([3]; End, read-out: % inhibition n1) was 69.2%, the inhibition at 30 µM ([3]; End, read-out: % inhibition n2) was 74.4% and the inhibition at 300 µM [3, 6] was 90.5%. The inhibition at 300 µM ([3]; End, read-out: % inhibition n1) was 90%, the inhibition at 300 µM ([3]; End, read-out: % inhibition n2) was 91% and the inhibition at 0.03 µM [3, 7] was 9.2%. The inhibition at 0.03 µM [3, 8] was 7.41%, the inhibition at 0.03 µM [3, 9] was 11% and the inhibition at 0.3 µM [3, 7] was 8.4%. The inhibition at 0.3 µM [3, 8] was 4.05%, the inhibition at 0.3 µM [3, 9] was 12.8% and the inhibition at 3 µM [3, 7] was 12.6%. For the same compound, the inhibition at 3 µM [3, 8] was 10.6%, the inhibition at 3 µM [3, 9] was 14.5% and the inhibition at 30 µM [3, 7] was 55.2%. For the same compound, the inhibition at 30 µM [3, 8] was 57.5%, the inhibition at 30 µM [3, 9] was 53% and the inhibition at 300 µM [3, 7] was 97.4%. It also gave an inhibition at 300 µM [3, 8] of 97.4% and an inhibition at 300 µM [3, 9] of 97.3%.
For `COC(=O)C1=C(C)NC(C)=C(C(=O)OC)C1c1ccccc1[N+](=O)[O-]` [Nifedipine], the inhibition at 0.001 µM ([4]; read-out: % inhibition mean) was 15.1%, the inhibition at 0.01 µM ([4]; read-out: % inhibition mean) was 34.8% and the inhibition at 0.1 µM ([4]; read-out: % inhibition mean) was 55.7%. For the same compound, the inhibition at 1 µM ([4]; read-out: % inhibition mean) was 61%, the inhibition at 10 µM ([4]; read-out: % inhibition mean) was 83.8% and the inhibition at 100 µM ([4]; read-out: % inhibition mean) was 94.8%. For the same compound, the inhibition at 0.001 µM ([4]; read-out: % inhibition n1) was 21.6%, the inhibition at 0.01 µM ([4]; read-out: % inhibition n1) was 38.2% and the inhibition at 0.1 µM ([4]; read-out: % inhibition n1) was 53.1%. The inhibition at 1 µM ([4]; read-out: % inhibition n1) was 56.8%, the inhibition at 10 µM ([4]; read-out: % inhibition n1) was 81.4% and the inhibition at 100 µM ([4]; read-out: % inhibition n1) was 95.2%. The inhibition at 0.001 µM ([4]; read-out: % inhibition n2) was 8.54%, the inhibition at 0.01 µM ([4]; read-out: % inhibition n2) was 31.5% and the inhibition at 0.1 µM ([4]; read-out: % inhibition n2) was 58.2%. The inhibition at 1 µM ([4]; read-out: % inhibition n2) was 65.2%, the inhibition at 10 µM ([4]; read-out: % inhibition n2) was 86.1% and the inhibition at 100 µM ([4]; read-out: % inhibition n2) was 94.5%.
`CCCCNc1ccc(C(=O)OCCN(C)C)cc1` [Tetracaine] gave an inhibition at 0.03 µM ([5]; read-out: % inhibition mean) of 6.44%, an inhibition at 0.03 µM ([5]; read-out: % inhibition n1) of 6.26% and an inhibition at 0.03 µM ([5]; read-out: % inhibition n2) of 6.62%. It also gave an inhibition at 0.3 µM ([5]; read-out: % inhibition mean) of 27.2%, an inhibition at 0.3 µM ([5]; read-out: % inhibition n1) of 28.8% and an inhibition at 0.3 µM ([5]; read-out: % inhibition n2) of 25.6%. The inhibition at 3 µM ([5]; read-out: % inhibition mean) was 71.3%, the inhibition at 3 µM ([5]; read-out: % inhibition n1) was 74.2% and the inhibition at 3 µM ([5]; read-out: % inhibition n2) was 68.5%. For the same compound, the inhibition at 30 µM ([5]; read-out: % inhibition mean) was 91.3%, the inhibition at 30 µM ([5]; read-out: % inhibition n1) was 93.8% and the inhibition at 30 µM ([5]; read-out: % inhibition n2) was 88.8%. It also gave an inhibition at 300 µM ([5]; read-out: % inhibition mean) of 95.9%, an inhibition at 300 µM ([5]; read-out: % inhibition n1) of 96.6% and an inhibition at 300 µM ([5]; read-out: % inhibition n2) of 95.2%.
